Target: T1, full-length beta-Catenin (Uniprot ID P35222) (Homo sapiens, UniProt P35222)
T1 construct: 10 nM full-length beta-Catenin (Uniprot ID P35222)
T1 sequence (P35222 1-781): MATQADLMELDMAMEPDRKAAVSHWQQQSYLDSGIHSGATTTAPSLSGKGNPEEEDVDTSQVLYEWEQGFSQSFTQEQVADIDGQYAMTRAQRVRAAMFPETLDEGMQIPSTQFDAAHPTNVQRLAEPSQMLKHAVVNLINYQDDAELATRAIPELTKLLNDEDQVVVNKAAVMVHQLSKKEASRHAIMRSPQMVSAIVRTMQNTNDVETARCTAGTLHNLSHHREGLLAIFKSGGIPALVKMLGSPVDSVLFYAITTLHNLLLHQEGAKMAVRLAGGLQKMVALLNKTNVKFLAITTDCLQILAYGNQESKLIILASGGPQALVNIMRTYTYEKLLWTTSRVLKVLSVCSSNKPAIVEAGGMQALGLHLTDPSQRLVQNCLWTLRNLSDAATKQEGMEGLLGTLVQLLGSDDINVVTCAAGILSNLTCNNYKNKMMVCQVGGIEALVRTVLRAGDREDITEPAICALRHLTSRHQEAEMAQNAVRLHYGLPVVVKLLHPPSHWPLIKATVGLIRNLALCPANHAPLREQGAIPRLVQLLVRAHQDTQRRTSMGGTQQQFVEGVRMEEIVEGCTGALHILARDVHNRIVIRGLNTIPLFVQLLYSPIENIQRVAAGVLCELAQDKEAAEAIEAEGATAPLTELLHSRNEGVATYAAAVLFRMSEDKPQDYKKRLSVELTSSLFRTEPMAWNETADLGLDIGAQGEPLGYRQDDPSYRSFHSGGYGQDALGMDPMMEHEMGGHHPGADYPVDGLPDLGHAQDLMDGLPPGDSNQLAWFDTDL
Test: Fluorescence polarization IC50 (beta-catenin / 5FAM-TCF4 10-53 competition)
Assay type: binding
Settings: beta-Catenin FP IC50, fluorescence polarization

Compound | IC50 [µM]
CC(=O)N1CCC[C@]12CC=CCCCC1(CCCC=CCCCOC(=O)N3CC[C@@](C(=O)N[C@@H](Cc4ccsc4)C(=O)N[C@@H](Cc4csc5ccccc45)C(=O)N[C@@H](CC(C)C)C(N)=O)(C3)NC(=O)[C@H](CC(C)C)NC(=O)[C@H](Cc3ccccc3)NC(=O)[C@H](C)NC(=O)[C@H](C)NC(=O)[C@H](CC(=O)O)NC(=O)[C@H](CC(=O)O)NC1=O)NC(=O)[C@H]([C@@H](C)O)NC(=O)[C@H](CC(=O)O)NC2=O (stereo partly drawn) [I-1415, Ac-PL3-Asp-Thr-B5-Asp-Asp-Ala-Ala-Phe-Leu-PyrS2-3Thi-BztA-Leu-NH2] | 0.072

Same assay, conditions: fluorescence polarization; read-out: beta-Catenin FP IC50

IC50 [µM] | Compound
0.789 | CC(=O)N1CCC[C@]12CC=CCCCC1(CCCC=CCCCOC(=O)N3CC[C@@](C(=O)N[C@@H](Cc4ccsc4)C(=O)N[C@@H](Cc4csc5ccccc45)C(=O)N[C@@H](CCO)C(N)=O)(C3)NC(=O)[C@H](CC(N)=O)NC(=O)[C@H](Cc3ccccc3)NC(=O)[C@H](C)NC(=O)[C@H](CCCCNC(C)C)NC(=O)[C@H](CCC(N)=O)NC(=O)[C@H](CC(=O)O)NC1=O)NC(=O)[C@H](CC1CCCCC1)NC(=O)[C@H](CC(N)=O)NC2=O (stereo partly drawn) [I-2074, Ac-PL3-Asn-Cha-B5-Asp-Gln-iPrLys-Ala-Phe-Asn-PyrS2-3Thi-BztA-Hse-NH2]
0.234 | CC(=O)N1CCC[C@H]1C(=O)N[C@]1(C)CCCCCCCCC2(CCCCCCCCOC(=O)N3CC[C@@](C(=O)N[C@@H](Cc4ccccc4C(F)(F)F)C(=O)N[C@@H](Cc4csc5ccccc45)C(=O)N[C@@H](CCC(N)=O)C(N)=O)(C3)NC(=O)[C@H](CC(C)C)NC(=O)[C@H](Cc3ccccc3)NC(=O)[C@H](C)NC(=O)[C@H](C)NC(=O)[C@H](Cc3cccc(C(=O)O)c3)NC(=O)[C@H](CC(=O)O)NC2=O)NC(=O)[C@H](CC(C)(C)C)NC(=O)[C@H](CC(=O)O)NC1=O (stereo partly drawn) [I-2573, Ac-Pro-R5-Asp-Npg-B5-Asp-3COOHF-Ala-Ala-Phe-Leu-PyrS2-2F3MeF-BztA-Gln-NH2]
0.567 | CC(=O)N1CCC[C@]12CC=CCCCC1(CCCC=CCCCOC(=O)N3CC[C@@](C(=O)N[C@@H](Cc4ccsc4)C(=O)N[C@@H](Cc4csc5ccccc45)C(=O)N[C@H](C(N)=O)C(C)C)(C3)NC(=O)[C@H](CC(N)=O)NC(=O)[C@H](Cc3ccccc3)NC(=O)[C@H](C)NC(=O)[C@H](C)NC(=O)[C@H]([C@@H](C)O)NC(=O)[C@H](CC(N)=O)NC1=O)NC(=O)[C@H](CC(C)(C)C)NC(=O)[C@H](CC(=O)O)NC2=O (stereo partly drawn) [I-1879, Ac-PL3-Asp-Npg-B5-Asn-Thr-Ala-Ala-Phe-Asn-PyrS2-3Thi-BztA-Val-NH2]
0.249 | CC(=O)N1CCC[C@]12CCCCCCC1(CCCCCCCCOC(=O)N3CC[C@@](C(=O)N[C@@H](Cc4ccsc4)C(=O)N[C@@H](Cc4csc5ccccc45)C(=O)N[C@@H](Cc4ccccc4C(N)=O)C(N)=O)(C3)NC(=O)[C@H](CC(C)C)NC(=O)[C@H](Cc3ccccc3)NC(=O)[C@H](C)NC(=O)[C@H](C)NC(=O)[C@H](CN(CC(=O)O)CC(F)(F)F)NC(=O)[C@H](CC(=O)O)NC1=O)NC(=O)[C@H](CC(C)(C)C)NC(=O)[C@H](CC(=O)O)NC2=O (stereo partly drawn) [I-1717, Ac-PL3-Asp-Npg-B5-Asp-TfeGA-Ala-Ala-Phe-Leu-PyrS2-3Thi-BztA-2cbmf-NH2]
0.024 | CCNC(=O)CC[C@H](NC(=O)[C@H](Cc1csc2ccccc12)NC(=O)[C@H](Cc1ccccc1C(F)(F)F)NC(=O)[C@]12CCN(C1)C(=O)OCCCC=CCCCC1(CCCC=CC[C@]3(CCCN3C(C)=O)C(=O)N[C@@H](CC(=O)O)C(=O)N[C@@H](CC(C)(C)C)C(=O)N1)C(=O)N[C@@H](CC(=O)O)C(=O)N[C@@H](Cc1cccc(C(=O)O)c1)C(=O)N[C@@H](C)C(=O)N[C@@H](C)C(=O)N[C@@H](Cc1ccccc1)C(=O)N[C@@H](CC(C)C)C(=O)N2)C(=O)N[C@@H](C)C(N)=O (stereo partly drawn) [I-2470, Ac-PL3-Asp-Npg-B5-Asp-3COOHF-Ala-Ala-Phe-Leu-PyrS2-2F3MeF-BztA-NHEt]GlnR-Ala-NH2]
0.452 | CC(=O)N1CCC[C@]12CC=CCCCC1(CCCC=CCCCOC(=O)N3CCC(C(=O)N[C@@H](Cc4ccccc4C(F)(F)F)C(=O)N[C@@H](Cc4csc5ccccc45)C(=O)N[C@@H](C)C(N)=O)(CC3)NC(=O)[C@H](CC(C)C)NC(=O)[C@H](Cc3ccccc3)NC(=O)[C@H](C)NC(=O)[C@H](CCC(N)=O)NC(=O)[C@H](Cc3cccc(C(=O)O)c3)NC(=O)[C@H](CC(=O)O)NC1=O)NC(=O)[C@H](CC(C)(C)C)NC(=O)[C@H](CC(=O)O)NC2=O (stereo partly drawn) [I-2585, Ac-PL3-Asp-Npg-B5-Asp-3COOHF-Gln-Ala-Phe-Leu-SPip2-2F3MeF-BztA-Ala-NH2]
8.83 | CC(=O)N1CCC[C@]12CC=CCCCC1(CCCC=CCCCOC(=O)N3CC[C@@](C(=O)N[C@@H](Cc4ccsc4)C(=O)N[C@@H](Cc4csc5ccccc45)C(=O)N[C@@H](CCC(N)=O)C(N)=O)(C3)NC(=O)[C@H](CC(N)=O)NC(=O)[C@H](CCc3ccccc3)NC(=O)[C@H](C)NC(=O)[C@H](C)NC(=O)[C@H]([C@@H](C)O)NC(=O)[C@H](CC(N)=O)NC1=O)NC(=O)[C@H](CC(C)(C)C)NC(=O)[C@H](CC(=O)O)NC2=O (stereo partly drawn) [I-2008, Ac-PL3-Asp-Npg-B5-Asn-Thr-Ala-Ala-hPhe-Asn-PyrS2-3Thi-BztA-Gln-NH2]
0.209 | CC(=O)N1CCC[C@]12CC=CCCCCC1(CCCCC=CCCCOC(=O)N3CC[C@@](C(=O)N[C@@H](Cc4ccccc4C(F)(F)F)C(=O)N[C@@H](Cc4csc5ccccc45)C(=O)N[C@@H](C)C(N)=O)(C3)NC(=O)[C@H](CC(C)C)NC(=O)[C@H](Cc3ccccc3)NC(=O)[C@H](C)NC(=O)[C@H](CCC(N)=O)NC(=O)[C@H](Cc3cccc(C(=O)O)c3)NC(=O)[C@H](CC(=O)O)NC1=O)NC(=O)[C@H](CC(C)(C)C)NC(=O)[C@H](CC(=O)O)NC2=O (stereo partly drawn) [I-2516, Ac-PL3-Asp-Npg-B6-Asp-3COOHF-Gln-Ala-Phe-Leu-PyrS2-2F3MeF-BztA-Ala-NH2]

More lines, now with the values behind:

Compound | IC50 [µM]
CCCCCCCC(=O)N1CCC[C@]12CC=CCCCC1(CCCC=CCCCOC(=O)N3CC[C@@](C(=O)N[C@@H](Cc4ccccc4)C(=O)N[C@@H](Cc4csc5ccccc45)C(=O)N[C@@H](CO)C(N)=O)(C3)NC(=O)[C@H](CO)NC(=O)[C@H](Cc3ccccc3)NC(=O)[C@H](C)NC(=O)[C@H](C)NC(=O)[C@H](CC(=O)O)NC(=O)[C@H](CC(=O)O)NC1=O)NC(=O)[C@H](CC(C)(C)C)NC(=O)[C@H](CC(=O)O)NC2=O (stereo partly drawn) [I-1355, Oct-PL3-Asp-Npg-B5-Asp-Asp-Ala-Ala-Phe-Ser-PyrS2-Phe-BztA-Ser-NH2] | 0.213
CCCC[C@@H]1NC(=O)[C@H](Cc2ccccc2)NC(=O)[C@H](C)NC(=O)C(C)(C)NC(=O)[C@H](Cc2cccc(C(=O)O)c2)NC(=O)[C@H](CC(=O)O)NC(=O)C2(CCCC=CCCCOC(=O)N3CC[C@@](C(=O)N[C@@H](Cc4ccsc4)C(=O)N[C@@H](Cc4csc5ccccc45)C(=O)N[C@@H](CCC(=O)N4CCC(N5CCCCC5)CC4)C(N)=O)(C3)NC1=O)CCCC=CC[C@]1(CCCN1C(C)=O)C(=O)N[C@@H](CC(=O)O)C(=O)N[C@@H](CC(C)(C)C)C(=O)N2 (stereo partly drawn) [I-2555, Ac-PL3-Asp-Npg-B5-Asp-3COOHF-Aib-Ala-Phe-nLeu-PyrS2-3Thi-BztA-[4Pippip]GlnR-NH2] | 0.011
CC(=O)N1CCC[C@]12CC=CCCCC1(CCCC=CCCCOC(=O)N3CC[C@@](C(=O)N[C@@H](Cc4ccsc4)C(=O)N[C@@H](Cc4csc5ccccc45)C(=O)N[C@@H](CCC(N)=O)C(=O)N[C@@H](CCCCNC(=O)C45CC6(C)CC(C)(CC(C)(C6)C4)C5)C(N)=O)(C3)NC(=O)[C@H](CC(C)C)NC(=O)[C@H](Cc3ccccc3)NC(=O)[C@H](C)NC(=O)[C@H](C)NC(=O)[C@H](CC(=O)O)NC(=O)[C@H](CC(=O)O)NC1=O)NC(=O)[C@H](CC(C)(C)C)NC(=O)[C@H](CC(=O)O)NC2=O (stereo partly drawn) [I-1479, Ac-PL3-Asp-Npg-B5-Asp-Asp-Ala-Ala-Phe-Leu-PyrS2-3Thi-BztA-Gln-[Me3AdamantC]-Lys-NH2] | 0.173
CC(=O)N1CCC[C@]12CC=CCCCC1(CCCC=CCCCOC(=O)N3CC[C@@](C(=O)N[C@@H](Cc4ccsc4)C(=O)N[C@@H](Cc4csc5ccccc45)C(=O)N[C@@H](CCC(N)=O)C(N)=O)(C3)NC(=O)[C@H](CC(N)=O)NC(=O)[C@H](Cc3ccccc3)NC(=O)[C@H](C)NC(=O)[C@H](C)NC(=O)[C@H](CC(=O)O)NC(=O)[C@H](CC(=O)O)NC1=O)NC(=O)[C@H](CC(C)(C)C)NC(=O)[C@H](CO)NC2=O (stereo partly drawn) [I-1222, Ac-PL3-Ser-Npg-B5-Asp-Asp-Ala-Ala-Phe-Asn-PyrS2-3Thi-BztA-Gln-NH2] | 0.511
CC(=O)N1CCC[C@]12CC=CCCCC1(CCCC=CCCCOC(=O)N3CC[C@@](C(=O)N[C@@H](Cc4ccsc4)C(=O)N[C@@H](Cc4csc5ccccc45)C(=O)N[C@@H](CCC(N)=O)C(N)=O)(C3)NC(=O)[C@H](CC(N)=O)NC(=O)[C@H](Cc3ccccc3)NC(=O)[C@H](C)NC(=O)[C@H](C)NC(=O)[C@H](CC(=O)O)NC(=O)[C@H](CC(C)C)NC1=O)NC(=O)[C@H](CC(C)(C)C)NC(=O)[C@H](CC(=O)O)NC2=O (stereo partly drawn) [I-1212, Ac-PL3-Asp-Npg-B5-Leu-Asp-Ala-Ala-Phe-Asn-PyrS2-3Thi-BztA-Gln-NH2] | 8.66

Source: US20240116985A1, “STAPLED PEPTIDES AND METHODS THEREOF” (priority 2020, published 2024)
